The target in test [1] is T1, Furin (108-574-Tev-Flag-His) enzyme (Homo sapiens, UniProt P09958).
T1 construct: Furin (108-574-Tev-Flag-His) enzyme was expressed and purified from CHO cells; TEV cleavage site (C); FLAG (C); His (C); made in house; host or cells: CHO cells
As to the kind of experiment: Furin enzyme assay. It counts as biochemical. The settings on record: for IC50: read-out: furin enzyme pIC50 (converted). Summed up: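 Compounds ran as 11-point threefold dilutions (0.00017–10 μM final) against 40 pM furin, purified from CHO cells, for 2 h at room temperature. Buffer: 100 mM HEPES pH7.5 with 1 mM CaCl2 and 0.005% Triton X-100. Envision readout. Four-parameter curve gives pXC50.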

The target of test [2] is T2, furin (endogenous protease) in U20S cells (Homo sapiens, UniProt P09958).
T2 construct: the endogenous protease cleaves GFP; endogenous in cells; host or cells: U2OS cells transduced with a BacMam reporter
As to the kind of experiment: Furin cell-based assay (image-based, Golgi-targeted GFP with BMP10 furin/PCSK cleavage site).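 Also: Read-out is mean GFP fluorescence of Golgi puncta per cell by high-content imaging, retained when furin inhibited, over an eleven-point 0.00017–10 µM series, four-parameter fit.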 The conditions noted are these: 24-hour incubation, read-out: furin golgi cell pXC50 (converted).

T2 sequence (P09958 108-794): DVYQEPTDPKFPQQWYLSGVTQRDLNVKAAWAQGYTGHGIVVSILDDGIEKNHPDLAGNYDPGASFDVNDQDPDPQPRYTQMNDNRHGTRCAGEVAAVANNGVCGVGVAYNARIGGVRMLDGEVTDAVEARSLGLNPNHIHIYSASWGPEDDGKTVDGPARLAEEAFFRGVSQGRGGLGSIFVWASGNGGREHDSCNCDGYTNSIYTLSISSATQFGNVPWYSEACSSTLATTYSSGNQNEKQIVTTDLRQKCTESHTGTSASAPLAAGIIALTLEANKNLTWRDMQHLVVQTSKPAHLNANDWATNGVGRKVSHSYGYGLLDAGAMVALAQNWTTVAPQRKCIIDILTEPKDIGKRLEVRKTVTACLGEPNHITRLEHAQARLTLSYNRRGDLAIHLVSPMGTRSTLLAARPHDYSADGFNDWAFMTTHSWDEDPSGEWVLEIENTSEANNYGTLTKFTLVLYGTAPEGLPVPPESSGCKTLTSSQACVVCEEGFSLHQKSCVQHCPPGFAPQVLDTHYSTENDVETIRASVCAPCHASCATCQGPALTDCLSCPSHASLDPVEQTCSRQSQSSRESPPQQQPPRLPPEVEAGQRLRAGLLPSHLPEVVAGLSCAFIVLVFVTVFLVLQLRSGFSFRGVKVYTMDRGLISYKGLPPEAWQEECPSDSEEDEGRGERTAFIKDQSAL
T1 sequence (P09958 108-574): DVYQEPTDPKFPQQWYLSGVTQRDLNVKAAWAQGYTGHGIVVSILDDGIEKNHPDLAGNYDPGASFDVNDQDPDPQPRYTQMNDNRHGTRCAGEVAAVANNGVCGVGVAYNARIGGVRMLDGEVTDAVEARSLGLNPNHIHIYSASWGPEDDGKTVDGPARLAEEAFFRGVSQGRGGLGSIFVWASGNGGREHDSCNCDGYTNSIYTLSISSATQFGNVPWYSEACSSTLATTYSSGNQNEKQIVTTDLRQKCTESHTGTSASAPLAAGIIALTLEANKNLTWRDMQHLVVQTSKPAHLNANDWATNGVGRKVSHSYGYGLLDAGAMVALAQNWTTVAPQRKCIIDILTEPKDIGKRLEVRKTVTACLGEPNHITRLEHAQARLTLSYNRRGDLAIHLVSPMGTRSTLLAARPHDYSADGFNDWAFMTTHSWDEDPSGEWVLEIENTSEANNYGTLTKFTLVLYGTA

Consider `CC(=O)NCC1CCN(Cc2cc(Oc3ccc(N4CCN(C)CC(F)C4)nc3)nc(-c3cc(Cl)cc(Cl)c3)c2)CC1` (stereo not shown) [Example 145, N-((1-((2-(3,5-dichlorophenyl)-6-((6-(6-fluoro-4-methyl-1,4-diazepan-1-yl)pyridin-3-yl)oxy)pyridin-4-yl)methyl)piperidin-4-yl)methyl)acetamide], for which the “furin enzyme pIC50” value in test [1] is given as 8.9. In test [2], the EC50 was 2 nM.
For `CN1CCN(c2ncc(Oc3cc(CN4CCC(CC(=O)O)CC4)cc(-c4cc(Cl)cc(Cl)c4)n3)cn2)CC(C)(O)C1` (stereo not shown) [Example 146, 2-(1-((2-(3,5-dichlorophenyl)-6-((2-(6-hydroxy-4,6-dimethyl-1,4-diazepan-1-yl)pyrimidin-5-yl)oxy)pyridin-4-yl)methyl)piperidin-4-yl)acetic acid], in that order: 8.5 and 15.8 nM.
Regarding `CN1CCN(c2ncc(Oc3cc(CN4CCC(CC(=O)O)CC4)cc(-c4cc(Cl)cc(Cl)c4)n3)cn2)CC(F)C1` (stereo not shown) [Example 147, 2-(1-((2-(3,5-dichlorophenyl)-6-((2-(6-fluoro-4-methyl-1,4-diazepan-1-yl)pyrimidin-5-yl)oxy)pyridin-4-yl)methyl)piperidin-4-yl)acetic acid], the IC50 in test [1] was 0.631 nM. Further, the EC50 in test [2] is 31.6 nM.
Consider `Cc1nc(N2CCN(C)CC2)ncc1Oc1cc(CN2CCC(CC(=O)O)CC2)cc(-c2cc(Cl)cc(Cl)c2)n1` [Example 148, 2-(1-((2-(3,5-dichlorophenyl)-6-((4-methyl-2-(4-methylpiperazin-1-yl)pyrimidin-5-yl)oxy)pyridin-4-yl)methyl)piperidin-4-yl)acetic acid], for which the “furin enzyme pIC50” value in test [1] stood at 8.3. Also, the EC50 in test [2] is 63.1 nM.
For `Cc1nc(N2CCN(C)CC2)ccc1Oc1cc(CN2CCC(CC(=O)O)CC2)cc(-c2cc(Cl)cc(Cl)c2)n1` [Example 149, 2-(1-((2-(3,5-dichlorophenyl)-6-((2-methyl-6-(4-methylpiperazin-1-yl)pyridin-3-yl)oxy)pyridin-4-yl)methyl)piperidin-4-yl)acetic acid], in that order: 8.3 and 79.4 nM.
For `CN1CCN(c2ccc(Oc3cc(CN4CCC(CC(=O)O)CC4)cc(-c4cc(Cl)cc(Cl)c4)n3)cc2)CC1` [Example 150, 2-(1-((2-(3,5-dichlorophenyl)-6-(4-(4-methylpiperazin-1-yl)phenoxy)pyridin-4-yl)methyl)piperidin-4-yl)acetic acid], in that order: 8.2 and 63.1 nM.
For `CN1CCN(c2ncc(Oc3cc(CN4CCC(CC(=O)O)CC4)cc(-c4cc(Cl)cc(Cl)c4)n3)cc2F)CC1` [Example 151, 2-(1-((2-(3,5-dichlorophenyl)-6-((5-fluoro-6-(4-methylpiperazin-1-yl)pyridin-3-yl)oxy)pyridin-4-yl)methyl)piperidin-4-yl)acetic acid], in that order: 8.2 and 100 nM.
Consider `CN1CCN(c2ncc(Oc3cc(CN4CCO[C@H](CCO)CC4)cc(-c4cc(Cl)cc(Cl)c4)n3)cn2)CC1` [Example 153, (S)-2-(4-((2-(3,5-dichlorophenyl)-6-((2-(4-methylpiperazin-1-yl)pyrimidin-5-yl)oxy)pyridin-4-yl)methyl)-1,4-oxazepan-7-yl)ethanol], for which the “furin enzyme pIC50” value in test [1] turned out to be 7.9. For the same molecule, the EC50 in test [2] is 15.8 nM.
For `CC(=O)N[C@@H]1[C@@H]2CN(Cc3cc(Oc4cnc(N5CCCN(C)CC5)nc4)nc(-c4cc(Cl)cc(Cl)c4)c3)C[C@@H]21` [Example 154, N-((1R,5S,6r)-3-((2-(3,5-dichlorophenyl)-6-((2-(4-methyl-1,4-diazepan-1-yl)pyrimidin-5-yl)oxy)pyridin-4-yl)methyl)-3-azabicyclo[3.1.0]hexan-6-yl)acetamide], in that order: 7.8 and 50.1 nM.
Consider `CC(=O)CC1CCN(Cc2cc(Oc3cnc(N4CCN(C)CC4)nc3)nc(-c3cc(Cl)cc(Cl)c3)c2)CC1` [Example 155, 1-(1-((2-(3,5-dichlorophenyl)-6-((2-(4-methylpiperazin-1-yl)pyrimidin-5-yl)oxy)pyridin-4-yl)methyl)piperidin-4-yl)propan-2-one], for which the “furin enzyme pIC50” value in test [1] was found to be 8.1. Also, the EC50 in test [2] was 15.8 nM.
On the same counts, the results for `CN1CCCN(c2ccc(Oc3cc(CN4CCC(CC(=O)O)CC4)cc(-c4cc(Cl)cc(Cl)c4)n3)cn2)CC1` [Example 156, 2-(1-((2-(3,5-Dichlorophenyl)-6-((6-(4-methyl-1,4-diazepan-1-yl)pyridin-3-yl)oxy)pyridin-4-yl)methyl)piperidin-4-yl)acetic acid] are 8.8 and 15.8 nM.
As to `CC(=O)NCC1CCN(Cc2cc(Oc3ccc(N4CCN(C)CC4)nn3)nc(-c3cc(Cl)cc(Cl)c3)c2)CC1` [Example 157, N-((1-((2-(3,5-dichlorophenyl)-6-((6-(4-methylpiperazin-1-yl)pyridazin-3-yl)oxy)pyridin-4-yl)methyl)piperidin-4-yl)methyl)acetamide], the “furin enzyme pIC50” value in test [1] turned out to be 10.8. The EC50 in test [2] is 1.26 nM.
On the same counts, the results for `NC1CCN(c2ncc(Oc3cc(CN4CCC(CC(=O)O)CC4)cc(-c4cc(Cl)cc(Cl)c4)n3)cn2)CC1` [Example 158, 2-(1-((2-((2-(4-Aminopiperidin-1-yl)pyrimidin-5-yl)oxy)-6-(3,5-dichlorophenyl)pyridin-4-yl)methyl)piperidin-4-yl)acetic acid] are 8.8 and 79.4 nM.
Consider `C[C@H]1CN(c2ncc(Oc3cc(CN4CCC(CC(=O)O)CC4)cc(-c4cc(Cl)cc(Cl)c4)n3)cn2)CCN1` [Example 159, (S)-2-(1-((2-(3,5-Dichlorophenyl)-6-((2-(3-methylpiperazin-1-yl)pyrimidin-5-yl)oxy)pyridin-4-yl)methyl)piperidin-4-yl)acetic acid], for which the “furin enzyme pIC50” value in test [1] is listed as 8.5. Also, in test [2], the EC50 is 25.1 nM.
For `CC1(C)CN(c2ncc(Oc3cc(CN4CCC(CC(=O)O)CC4)cc(-c4cc(Cl)cc(Cl)c4)n3)cn2)CCN1` [Example 160, 2-(1-((2-(3,5-dichlorophenyl)-6-((2-(3,3-dimethylpiperazin-1-yl)pyrimidin-5-yl)oxy)pyridin-4-yl)methyl)piperidin-4-yl)acetic acid], in that order: 8.8 and 25.1 nM.
For `O=C(O)CC1CCN(Cc2cc(Oc3cnc(N4CC5CNCC5C4)nc3)nc(-c3cc(Cl)cc(Cl)c3)c2)CC1` (stereo not shown) [Example 161, 2-(1-((2-(3,5-dichlorophenyl)-6-((2-(hexahydropyrrolo[3,4-c]pyrrol-2(1H)-yl)pyrimidin-5-yl)oxy)pyridin-4-yl)methyl)piperidin-4-yl)acetic acid], in that order: 8.3 and 39.8 nM.
On the same counts, the results for `O=C(O)CC1CCN(Cc2cc(Oc3cnc(N4CC5CC(C4)N5)nc3)nc(-c3cc(Cl)cc(Cl)c3)c2)CC1` [Example 162, 2-(1-((2-((2-(3,6-diazabicyclo[3.1.1]heptan-3-yl)pyrimidin-5-yl)oxy)-6-(3,5-dichlorophenyl)pyridin-4-yl)methyl)piperidin-4-yl)acetic acid] are 8.4 and 79.4 nM.
In the case of `O=C(O)CC1CCN(Cc2cc(Oc3cnc(N4CC5CCC(C4)N5)nc3)nc(-c3cc(Cl)cc(Cl)c3)c2)CC1` [Example 163, 2-(1-((2-((2-(3,8-diazabicyclo[3.2.1]octan-3-yl)pyrimidin-5-yl)oxy)-6-(3,5-dichlorophenyl)pyridin-4-yl)methyl)piperidin-4-yl)acetic acid], the “furin enzyme pIC50” value in test [1] was 8.7. The EC50 in test [2] was 10 nM.
As to `O=C(O)CC1CCN(Cc2cc(Oc3cnc(N4CCNC5(CC5)C4)nc3)nc(-c3cc(Cl)cc(Cl)c3)c2)CC1` [Example 164, 2-(1-((2-((2-(4,7-diazaspiro[2.5]octan-7-yl)pyrimidin-5-yl)oxy)-6-(3,5-dichlorophenyl)pyridin-4-yl)methyl)piperidin-4-yl)acetic acid], the IC50 in test [1] is 3.98 nM. For the same molecule, the EC50 in test [2] was 25.1 nM.
With `NC1(CO)CCN(c2ncc(Oc3cc(CN4CCC(CC(=O)O)CC4)cc(-c4cc(Cl)cc(Cl)c4)n3)cn2)CC1` [Example 165, 2-(1-((2-((2-(4-amino-4-(hydroxymethyl)piperidin-1-yl)pyrimidin-5-yl)oxy)-6-(3,5-dichlorophenyl)pyridin-4-yl)methyl)piperidin-4-yl)acetic acid], in test [1], the “furin enzyme pIC50” value is recorded as 8.4. Besides, the EC50 in test [2] was 31.6 nM.
On the same counts, the results for `O=C(O)CC1CCN(Cc2cc(Oc3ccc(N4CCCNCC4)nc3)nc(-c3cc(Cl)cc(Cl)c3)c2)CC1` [Example 166, 2-(1-((2-((6-(1,4-Diazepan-1-yl)pyridin-3-yl)oxy)-6-(3,5-dichlorophenyl)pyridin-4-yl)methyl)piperidin-4-yl)acetic acid] are 8.5 and 63.1 nM.
Take `CC(=O)NCC1CCN(Cc2cc(Oc3cnc(N4CCN(CCS(C)(=O)=O)CC4)nc3)cc(-c3cc(Cl)cc(Cl)c3)c2)CC1` [Example 167, N-((1-((3′,5′-Dichloro-5-((2-(4-(2-(methylsulfonyl)ethyl)piperazin-1-yl)pyrimidin-5-yl)oxy)-[1,1′-biphenyl]-3-yl)methyl)piperidin-4-yl)methyl)acetamide]: the “furin enzyme pIC50” value in test [1] was found to be 8.3. Besides, in test [2], the EC50 is 50.1 nM.
On the same counts, the results for `CC(=O)NCC1CCN(Cc2cc(Oc3cnc(N4CCN(CCC(=O)O)CC4)nc3)cc(-c3cc(Cl)cc(Cl)c3)c2)CC1` [Example 168, 3-(4-(5-((5-((4-(Acetamidomethyl)piperidin-1-yl)methyl)-3′,5′-dichloro-[1,1′-biphenyl]-3-yl)oxy)pyrimidin-2-yl)piperazin-1-yl)propanoic acid] are 9.3 and 25.1 nM.

Source of the values: patent US11773078B2, “Furin inhibitors” (Glaxosmithkline Intellectual Property Development Limited, priority 2018, dated 2023).
